In ChEMBL document CHEMBL1201862, “PubChem BioAssay data set” (2004):
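Protocol summary: plate cells (96-well), add compound at 5 concentrations, incubate 48 h, interpolate endpoints linearly. GI50 is the concentration that inhibits growth by half.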 Calls of active or inactive are those of the source. Rule as the data show it: active = GI50 up to about 1.1 µM and inactive = higher.

What was measured:
Experiment in all cases: NCI-60 cell line screen, 48 h
SR = test system: SR
KM12 = test system: KM12
EKVX = test system: EKVX
SNB-19 = test system: SNB-19
ACHN = test system: ACHN
786-0 = test system: 786-0
HL-60 = test system: HL-60
NCI-H522 = test system: NCI-H522
SW-620 = test system: SW-620
NCI-H460 = test system: NCI-H460
U-251 = test system: U-251
UACC-62 = test system: UACC-62
OVCAR-5 = test system: OVCAR-5
UACC-257 = test system: UACC-257
UO-31 = test system: UO-31
HOP-92 = test system: HOP-92

Row | Compound | GI50 (SR) | GI50 (KM12) | GI50 (EKVX) | GI50 (SNB-19) | GI50 (ACHN) | GI50 (786-0) | GI50 (HL-60) | GI50 (NCI-H522) | GI50 (SW-620) | GI50 (NCI-H460) | GI50 (U-251) | GI50 (UACC-62) | GI50 (OVCAR-5) | GI50 (UACC-257) | GI50 (UO-31) | GI50 (HOP-92)
1 | c1ccc2c(c1)CCc1c(-c3ccncc3)n[nH]c1-2 | 27.8 µM (inactive) | 21.8 µM (inactive) | 6.14 µM (inactive) | 27.7 µM (inactive) | 26.5 µM (inactive) | 37.8 µM (inactive) | 34.3 µM (inactive) | > 10 µM (inactive) | 39.7 µM (inactive) | 32.1 µM (inactive) | 13.6 µM (inactive) | 16.4 µM (inactive) | 32.7 µM (inactive) | 25.6 µM (inactive) | – | –
2 | O=C(O)C1=C(C(=O)Nc2ccccc2)C2C=CC1C2 (stereo not given) | > 100 µM (inactive) | > 100 µM (inactive) | > 100 µM (inactive) | > 100 µM (inactive) | > 100 µM (inactive) | > 100 µM (inactive) | > 100 µM (inactive) | – | > 100 µM (inactive) | > 100 µM (inactive) | > 100 µM (inactive) | > 100 µM (inactive) | > 100 µM (inactive) | > 100 µM (inactive) | > 100 µM (inactive) | > 100 µM (inactive)
3 | COc1cc2cc3c4c(cc(OC)c(OC)c4c2cc1OC)CCN3C(=O)N(C)C | > 100 µM (inactive) | > 100 µM (inactive) | > 100 µM (inactive) | > 100 µM (inactive) | 75.5 µM (inactive) | 44.5 µM (inactive) | > 100 µM (inactive) | 29.9 µM (inactive) | > 100 µM (inactive) | 87.7 µM (inactive) | > 100 µM (inactive) | > 100 µM (inactive) | > 100 µM (inactive) | > 100 µM (inactive) | > 100 µM (inactive) | 91 µM (inactive)
4 | OC1(c2ccccc2)OC(C#Cc2ccccc2)(c2ccccc2)c2ccccc21 (stereo not given) | 2.5 µM (inactive) | 1.59 µM (inactive) | 3.19 µM (inactive) | 13.2 µM (inactive) | – | 3.73 µM (inactive) | 2.58 µM (inactive) | 7.48 µM (inactive) | 4.12 µM (inactive) | 4.47 µM (inactive) | 4.12 µM (inactive) | 1.94 µM (inactive) | 2.79 µM (inactive) | 8.32 µM (inactive) | 1.71 µM (inactive) | 4 µM (inactive)
5 | O=C1C(O)=C(CCCc2ccc(Oc3ccccc3)cc2)C(=O)c2ccccc21 | 15.2 µM (inactive) | 15.1 µM (inactive) | 11.6 µM (inactive) | 7.46 µM (inactive) | 5.93 µM (inactive) | 5.64 µM (inactive) | 7.94 µM (inactive) | 6.49 µM (inactive) | 8.63 µM (inactive) | 10.4 µM (inactive) | 5.64 µM (inactive) | 3.94 µM (inactive) | 41.1 µM (inactive) | 4.32 µM (inactive) | 5.92 µM (inactive) | 12.9 µM (inactive)
6 | CCOC(=O)c1c2cccccc2n2c(=O)cc(C)nc12 | > 100 µM (inactive) | > 100 µM (inactive) | > 100 µM (inactive) | > 100 µM (inactive) | > 100 µM (inactive) | > 100 µM (inactive) | > 100 µM (inactive) | > 100 µM (inactive) | > 100 µM (inactive) | > 100 µM (inactive) | > 100 µM (inactive) | 71.6 µM (inactive) | > 100 µM (inactive) | > 100 µM (inactive) | > 100 µM (inactive) | –
7 | c1ccc(C2N=NN(c3ccccc3)C2N2CCCCC2)cc1 (stereo not given) | > 100 µM (inactive) | > 100 µM (inactive) | > 100 µM (inactive) | > 100 µM (inactive) | > 100 µM (inactive) | 64.7 µM (inactive) | > 100 µM (inactive) | > 100 µM (inactive) | > 100 µM (inactive) | – | 56 µM (inactive) | 67 µM (inactive) | > 100 µM (inactive) | > 100 µM (inactive) | > 100 µM (inactive) | 17.3 µM (inactive)
8 | Nc1nc(N)c(N=O)c(Nc2ccc(I)cc2)n1 | 10.8 µM (inactive) | 18.5 µM (inactive) | > 100 µM (inactive) | 30.1 µM (inactive) | 24 µM (inactive) | 25.5 µM (inactive) | 6.53 µM (inactive) | 12.1 µM (inactive) | 30 µM (inactive) | 27.5 µM (inactive) | 25.3 µM (inactive) | 7.78 µM (inactive) | 19.2 µM (inactive) | 19.5 µM (inactive) | 18 µM (inactive) | –
9 | Cn1c(=O)c(C2c3ccccc3Oc3c2c(=O)n(C)c2ccccc32)c(O)c2ccccc21 (stereo not given) | 42.1 µM (inactive) | 69.8 µM (inactive) | 41.2 µM (inactive) | 44.4 µM (inactive) | 39.8 µM (inactive) | 27.2 µM (inactive) | 30.1 µM (inactive) | 24.3 µM (inactive) | 43.9 µM (inactive) | > 100 µM (inactive) | 41.2 µM (inactive) | 44.9 µM (inactive) | > 100 µM (inactive) | 24.1 µM (inactive) | 73.5 µM (inactive) | 42.9 µM (inactive)
10 | CC(C)(C)c1cc(CCC(=O)Nc2ccc(Cl)cc2Cl)nc(N)n1 | > 100 µM (inactive) | > 100 µM (inactive) | > 100 µM (inactive) | > 100 µM (inactive) | > 100 µM (inactive) | > 100 µM (inactive) | > 100 µM (inactive) | – | > 100 µM (inactive) | > 100 µM (inactive) | > 100 µM (inactive) | > 100 µM (inactive) | > 100 µM (inactive) | > 100 µM (inactive) | > 100 µM (inactive) | 91.6 µM (inactive)
11 | COc1cc(OC(=O)c2c(O)cc(O)c(O)c2C)cc(C)c1C(=O)Oc1cc(C)c(C(=O)O)c(O)c1 | > 100 µM (inactive) | > 100 µM (inactive) | > 100 µM (inactive) | – | > 100 µM (inactive) | > 100 µM (inactive) | > 100 µM (inactive) | > 100 µM (inactive) | > 100 µM (inactive) | > 100 µM (inactive) | > 100 µM (inactive) | > 100 µM (inactive) | > 100 µM (inactive) | > 100 µM (inactive) | > 100 µM (inactive) | > 100 µM (inactive)
12 | CC1CCCC(C(=O)/C(=C/c2cccc(Cl)c2)C(=O)C(=O)O)C1 (stereo not given) | – | 15.6 µM (inactive) | 47.1 µM (inactive) | 33.8 µM (inactive) | 39.4 µM (inactive) | 17.9 µM (inactive) | 20 µM (inactive) | 0.0161 µM (active) | 14.5 µM (inactive) | 33 µM (inactive) | 17.3 µM (inactive) | 36.9 µM (inactive) | > 100 µM (inactive) | 59.8 µM (inactive) | 61.2 µM (inactive) | 39 µM (inactive)
13 | Cc1nc(=O)n2c(C)n[nH]c2c1C(=O)Nc1cc(Cl)cc(Cl)c1 | 19.9 µM (inactive) | 31.9 µM (inactive) | 31.1 µM (inactive) | – | 20 µM (inactive) | 28.4 µM (inactive) | 20.1 µM (inactive) | 6.01 µM (inactive) | 41.5 µM (inactive) | 26.9 µM (inactive) | 21.1 µM (inactive) | 16.2 µM (inactive) | 65.3 µM (inactive) | – | 20.4 µM (inactive) | 17.5 µM (inactive)
14 | OCCC1(O)CCC(O)CC1 (stereo not given) | > 100 µM (inactive) | > 100 µM (inactive) | > 100 µM (inactive) | > 100 µM (inactive) | – | > 100 µM (inactive) | > 100 µM (inactive) | > 100 µM (inactive) | > 100 µM (inactive) | > 100 µM (inactive) | > 100 µM (inactive) | > 100 µM (inactive) | > 100 µM (inactive) | > 100 µM (inactive) | > 100 µM (inactive) | > 100 µM (inactive)
15 | O=C(CC(=O)N1N=C(n2ccc3ccccc32)CC1c1ccccc1)Nc1ccc(Cl)cc1 (stereo not given) | – | > 100 µM (inactive) | > 100 µM (inactive) | > 100 µM (inactive) | > 100 µM (inactive) | > 100 µM (inactive) | > 100 µM (inactive) | > 100 µM (inactive) | > 100 µM (inactive) | > 100 µM (inactive) | > 100 µM (inactive) | > 100 µM (inactive) | > 100 µM (inactive) | > 100 µM (inactive) | > 100 µM (inactive) | 77.6 µM (inactive)
16 | C[C@]12CCCC(=O)C1(O)C[C@H](C(=O)O)CC2 (stereo not given in full) | > 100 µM (inactive) | > 100 µM (inactive) | – | > 100 µM (inactive) | > 100 µM (inactive) | > 100 µM (inactive) | > 100 µM (inactive) | > 100 µM (inactive) | > 100 µM (inactive) | > 100 µM (inactive) | > 100 µM (inactive) | > 100 µM (inactive) | > 100 µM (inactive) | > 100 µM (inactive) | > 100 µM (inactive) | > 100 µM (inactive)
17 | CC(O)(c1ccc(OCCC[N+](C)(C)C)cc1)C(C)(O)c1ccc(OCCC[N+](C)(C)C)cc1 (stereo not given) | – | > 100 µM (inactive) | > 100 µM (inactive) | > 100 µM (inactive) | > 100 µM (inactive) | > 100 µM (inactive) | > 100 µM (inactive) | > 100 µM (inactive) | > 100 µM (inactive) | > 100 µM (inactive) | > 100 µM (inactive) | > 100 µM (inactive) | > 100 µM (inactive) | > 100 µM (inactive) | > 100 µM (inactive) | > 100 µM (inactive)
18 | COc1cc(C2Oc3cc(-c4oc5cc(O)cc(O)c5c(=O)c4O)ccc3OC2CO)ccc1O (stereo not given) [DEHYDROSILYLBIN] | 4.61 µM (inactive) | 20.1 µM (inactive) | – | 7.43 µM (inactive) | 7.64 µM (inactive) | 8.55 µM (inactive) | 9.48 µM (inactive) | 3.03 µM (inactive) | 8.55 µM (inactive) | 3.72 µM (inactive) | 6.68 µM (inactive) | 3.42 µM (inactive) | – | 32 µM (inactive) | 2.64 µM (inactive) | 10.5 µM (inactive)
